Reference: patent EP2054420B1, “BENZIMIDAZO[1,2-C][1,2,3]THIADIAZOL-7-SULFONAMIDES AS INHIBITORS OF CARBONIC ANHYDRASE AND THE INTERMEDIATES FOR PRODUCTION THEREOF” (Biotechnologijos Institutas, priority 2006, dated 2008)

Molecular target: bovine carbonic anhydrase II (Bos taurus, UniProt P00921)
Assay: fluorescent thermal shift assay (ANS probe)
Assay type: binding
Details: upon increasing concentration of the inhibitor; Figure 3
Protocol: Example 19. Determination of the observed binding constants by the fluorescent thermal shift assay.
Inhibitor binding to carbonic anhytdrases was also measured by the fluorescent thermal shift assay, which employs 1-anilino-8-naphthalene sulfonate (ANS) probe that visualizes enzyme thermal stabilization by the inhibitor thus determining the binding constant.
Resultant data is consistent with the isothermal titration calorimetry data in determining the observed binding constants of the inhibitors.

Sequence of bovine carbonic anhydrase II (P00921 whole entry): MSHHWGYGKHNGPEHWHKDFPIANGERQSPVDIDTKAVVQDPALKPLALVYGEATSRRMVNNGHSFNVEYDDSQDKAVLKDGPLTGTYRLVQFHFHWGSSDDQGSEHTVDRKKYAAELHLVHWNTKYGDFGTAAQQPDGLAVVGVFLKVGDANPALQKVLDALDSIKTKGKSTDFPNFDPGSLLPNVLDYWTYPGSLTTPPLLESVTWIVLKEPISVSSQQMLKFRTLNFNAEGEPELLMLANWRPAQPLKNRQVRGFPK

melting temperature (Tm): Tm increase
SMILES: NS(=O)(=O)c1ccc2nc3n(c2c1)N=S=C3N1CCOCC1 [compound 4, 3-morpholinbenzimidazo[1,2-c][1,2,3]thiadiazol-7-sulfonamide]
